# Assay results reported in patent US20100113465A1, “7-AZASPIRO[3.5]NONANE-7-CARBOXAMIDE COMPOUNDS” (Pfizer Inc., priority 2008, published 2010).
# Marks after values point to notes of the source that are not given here.
# Key:
# human FAAH = biological target: T1, human FAAH (Homo sapiens, UniProt O00519); assay: FAAH assay, human FAAH enzyme inhibition (kinact/Ki); format: biochemical; details: oleamide substrate 50 μM, 30° C., read-out: hFAAH kinact/Ki
# T1 construct: made in house; host or cells: E. coli
# T1 sequence (O00519 1-579): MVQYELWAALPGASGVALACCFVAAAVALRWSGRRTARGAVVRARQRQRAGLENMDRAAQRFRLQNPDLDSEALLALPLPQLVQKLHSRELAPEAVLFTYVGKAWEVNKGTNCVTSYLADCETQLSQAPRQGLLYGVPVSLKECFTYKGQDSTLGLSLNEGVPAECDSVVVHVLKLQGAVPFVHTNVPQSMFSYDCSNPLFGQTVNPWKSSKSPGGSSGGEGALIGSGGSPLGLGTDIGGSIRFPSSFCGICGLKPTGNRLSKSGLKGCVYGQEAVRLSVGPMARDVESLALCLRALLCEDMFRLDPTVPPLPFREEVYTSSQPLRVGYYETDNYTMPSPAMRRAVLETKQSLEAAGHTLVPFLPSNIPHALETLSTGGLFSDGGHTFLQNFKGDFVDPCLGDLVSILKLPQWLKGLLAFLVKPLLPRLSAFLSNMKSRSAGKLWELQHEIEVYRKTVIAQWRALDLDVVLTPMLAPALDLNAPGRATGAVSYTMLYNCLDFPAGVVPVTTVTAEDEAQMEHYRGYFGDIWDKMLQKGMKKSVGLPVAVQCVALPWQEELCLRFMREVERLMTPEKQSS
# In short: (§1)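 Purified E. coli-expressed FAAH (1-4 nM) with oleamide at Km (50 μM), coupled GDH/NADH read at 340 nm over 90 min, 30° C, pH 7.4, 7.5% DMSO and EtOH. kobs from mono-exponential fits; kinact/Ki from kobs vs inhibitor slope, multiplied by two.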
# rat FAAH = biological target: T2, rat FAAH (Rattus norvegicus, UniProt P97612); assay: FAAH assay, rat FAAH enzyme inhibition (kinact/Ki); format: biochemical; details: oleamide substrate 50 μM, 30° C., read-out: rFAAH kinact/Ki
# T2 construct: made in house; host or cells: E. coli
# T2 sequence (P97612 1-579): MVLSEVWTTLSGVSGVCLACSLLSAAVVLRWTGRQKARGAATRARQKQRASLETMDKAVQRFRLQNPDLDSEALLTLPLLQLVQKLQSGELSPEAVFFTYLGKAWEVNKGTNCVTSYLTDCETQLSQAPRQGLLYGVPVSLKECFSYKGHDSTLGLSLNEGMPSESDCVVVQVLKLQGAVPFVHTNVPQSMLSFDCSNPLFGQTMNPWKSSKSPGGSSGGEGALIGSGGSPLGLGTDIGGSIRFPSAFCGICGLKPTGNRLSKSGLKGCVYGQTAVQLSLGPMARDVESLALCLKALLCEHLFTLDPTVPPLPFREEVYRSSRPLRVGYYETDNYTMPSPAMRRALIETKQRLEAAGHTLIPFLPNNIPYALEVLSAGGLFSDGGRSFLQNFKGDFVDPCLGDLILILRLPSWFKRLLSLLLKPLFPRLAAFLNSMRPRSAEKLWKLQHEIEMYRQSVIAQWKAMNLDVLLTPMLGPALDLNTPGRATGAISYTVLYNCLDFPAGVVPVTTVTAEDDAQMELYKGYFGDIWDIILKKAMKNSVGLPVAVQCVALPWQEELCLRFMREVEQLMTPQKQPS
# In short: as §1
# Male Sprague-Dawley Rats [1] = assay: In vivo Complete Freund's Adjuvant (CFA) efficacy assay; design: species or system rat; key: (+) indicates the test compound was determined to be efficacious at 3 mpk, oral dosing; (−) indicates the test compound was determined to not be efficacious at 3 mpk, oral dosing; details: inhibition of allodynia vs vehicle, p<0.05
# Male Sprague-Dawley Rats [2] = assay: as above; design: species or system rat; key: (+) indicates the test compound was determined to be efficacious at 3 mpk, oral dosing; (−) indicates the test compound was determined to not be efficacious at 3 mpk, oral dosing; details: 3 mpk, oral dosing; inhibition of allodynia (PWT) four hours postdose vs vehicle, p<0.05
# Method: For additional information on the CFA efficacy assay, see Jayamanne et al., Brit. J. Pharmacol. 2006, 147, 281-288. Experiments were performed on adult Male Sprague-Dawley Rats (200 g-250 g). Inflammation was induced in the left hindpaw of the rat by an intra-plantar injection of 150 uL Complete Freund's Adjuvant (CFA) (SIGMA F5881). The CFA injection immediately induces local inflammation, paw swelling, and pain that persists for at least two weeks post-injection. Baseline paw withdrawal threshold (PWT) was measured to determine the percent inhibition of allodynia using a set of Von Frey Hairs on day 4 post injection as illustrated by the Dixon Up and Down Method (W. J. Dixon, Ann. Rev. Pharmacol. Toxicol. 1980, 20:441-462). […] Test compound was administered at a concentration of 3 mg/kg (mpk) orally with the dosing vehicle 5% N,N′-Dimethylacetamide (SIGMA D137510) and 95% (40% 2-hydroxypropyl-beta-cyclodextrin in water) (SIGMA H107). Following Dose administration PWT threshold was evaluated again at four hours postdose. The Sprague-Dawley rats used in this assay were purchased from Harlan, 8520 Allison Pointe Blvd., Indianapolis, Ind., 46250, U.S.A. Sprague-Dawley rats are an outbred breed of albino rats first produced by the Sprague Dawley farms in Madison, Wis., U.S.A.
# Percent Inhibition of Allodynia was determined by the formula: […]
# ΔPWT measurements were averaged for each treatment group and statistical comparisons between groups were made using ANOVA and Dunnett's two-tailed test. […]
Structure (SMILES),kinact/KI (human FAAH) [M⁻¹ s⁻¹],kinact/KI (rat FAAH) [M⁻¹ s⁻¹],"CFA Efficacy (Male Sprague-Dawley Rats [1]; 10 mpk, intraperitoneal dosing)","CFA Efficacy (Male Sprague-Dawley Rats [1]; 25 mpk, intraperitoneal dosing)","CFA Efficacy (Male Sprague-Dawley Rats [1]; 1 mpk, oral dosing)",CFA Efficacy (Male Sprague-Dawley Rats [2])
"COc1cccc(C2CC3(CCN(C(=O)Nc4onc(C)c4C)CC3)C2)c1 [Example 5, N-(3,4-dimethylisoxazol-5-yl)-2-(3-methoxyphenyl)-7-azaspiro[3.5]nonane-7-carboxamide]",2190,741,(+)^c,–,–,–
"Cc1noc(NC(=O)N2CCC3(CC2)CC(c2cccc(C(F)(F)F)c2)C3)c1C [Example 6, N-(3,4-dimethylisoxazol-5-yl)-2-[3-(trifluoromethyl)phenyl]-7-azaspiro[3.5]nonane-7-carboxamide]",3060,3690,–,–,(−)^e,–
"Cc1cccc(C2CC3(CCN(C(=O)Nc4onc(C)c4C)CC3)C2)c1 [Example 7, N-(3,4-dimethylisoxazol-5-yl)-2-(3-methylphenyl)-7-azaspiro[3.5]nonane-7-carboxamide]",2870,1620,–,–,(−)^e,–
"Cc1ccc(C2CC3(CCN(C(=O)Nc4onc(C)c4C)CC3)C2)cc1C [Example 8, N-(3,4-dimethylisoxazol-5-yl)-2-(3,4-dimethylphenyl)-7-azaspiro[3.5]nonane-7-carboxamide]",2820,1920,–,–,(−)^e,–
"O=C(Nc1cccnn1)N1CCC2(CC1)CC(c1cccc(Oc3ncc(Br)cn3)c1)C2 [Example 9, 2-{3-[(5-bromopyrimidin-2-yl)oxy]phenyl}-N-pyridazin-3-yl-7-azaspiro[3.5]nonane-7-carboxamide]",2450,1430,(+)^c,–,–,–
"O=C(Nc1cccnn1)N1CCC2(CC1)CC(c1cccc(Oc3ccc(Br)cn3)c1)C2 [Example 10, 2-{3-[(5-bromopyridin-2-yl)oxy]phenyl}-N-pyridazin-3-yl-7-azaspiro[3.5]nonane-7-carboxamide]",2040,1820,(−)^c,–,–,–
"Cn1nnnc1NC(=O)N1CCC2(CC1)CC(F)(c1cccc(OC(F)(F)F)c1)C2 [Example 53, 2-fluoro-N-(1-methyl-1H-tetrazol-5-yl)-2-[3-(trifluoromethoxy)phenyl]-7-azaspiro[3.5]nonane-7-carboxamide]",13900,1920,–,–,–,(+)
"Cn1nnnc1NC(=O)N1CCC2(CC1)CC(c1cccc(Oc3ccc(C(F)(F)F)cn3)c1)C2 [Example 54, N-(1-methyl-1H-tetrazol-5-yl)-2-(3-{[5-(trifluoromethyl)pyridin-2-yl]oxy}phenyl)-7-azaspiro[3.5]nonane-7-carboxamide]",21700,26800,–,–,–,(+)

# Now from value to compound, other results behind:
kinact/KI (human FAAH) [M⁻¹ s⁻¹],kinact/KI (rat FAAH) [M⁻¹ s⁻¹],Structure (SMILES),"CFA Efficacy (Male Sprague-Dawley Rats [1]; 10 mpk, intraperitoneal dosing)","CFA Efficacy (Male Sprague-Dawley Rats [1]; 25 mpk, intraperitoneal dosing)","CFA Efficacy (Male Sprague-Dawley Rats [1]; 1 mpk, oral dosing)",CFA Efficacy (Male Sprague-Dawley Rats [2])
1570,647,"O=C(Nc1cccnn1)N1CCC2(CC1)CC(c1cccc(Oc3ccc(C(F)(F)F)cn3)c1)C2 [Example 1, N-pyridazin-3-yl-2-(3-{[5-(trifluoromethyl)pyridin-2-yl]oxy}phenyl)-7-azaspiro[3.5]nonane-7-carboxamide]",(−)^c,–,–,–
1760,9460,"Cc1noc(NC(=O)N2CCC3(CC2)CC(c2cccc(Oc4ccc(C(F)(F)F)cn4)c2)C3)c1C [Example 2, N-(3,4-dimethylisoxazol-5-yl)-2-(3-{[5-(trifluoromethyl)pyridin-2-yl]oxy}phenyl)-7-azaspiro[3.5]nonane-7-carboxamide]",–,(+)^d,–,–
1030,4920,"O=C(Nc1noc2ccccc12)N1CCC2(CC1)CC(c1cccc(Oc3ccc(C(F)(F)F)cn3)c1)C2 [Example 3, N-1,2-benzisoxazol-3-yl-2-(3-{[5-(trifluoromethyl)pyridin-2-yl]oxy}phenyl)-7-azaspiro[3.5]nonane-7-carboxamide]",–,(+),(−),–
16700,3530,"Cn1nnnc1NC(=O)N1CCC2(CC1)CC(c1noc(-c3ccc(OC(F)(F)F)cc3)n1)C2 [Example 50, N-(1-methyl-1H-tetrazol-5-yl)-2-{5-[4-(trifluoromethoxy)phenyl]-1,2,4-oxadiazol-3-yl}-7-azaspiro[3.5]nonane-7-carboxamide]",–,–,–,(+)
